Assay results taken from patent US20260193188A1, “CRYSTALLINE POLYMORPH FORMS OF A TRPV1 ANTAGONIST AND FORMULATIONS THEREOF” (Bausch + Lomb Ireland Limited, priority 2022, published 2026).
Converted amounts (≈) assume the structure as drawn. One block for each molecule: values may come before it.

What was measured:
human TRPV1 = biological target: T1, human TRPV1 (Homo sapiens, UniProt Q8NER1); assay: FLIPR calcium assay to detect calcium influx in CHO-huTrpV1 cells (antagonism of NADA response); assay type: cell-based; conditions: stimulated with 2.5 μM NADA (EC80), FLIPR calcium 6, read-out: IC50, antagonist effect against human TRPV1
T1 construct: expressed in transfected cells; host or cells: CHO (Chinese Hamster Ovary) cells, geneticin-selected
T1 sequence (Q8NER1 whole entry): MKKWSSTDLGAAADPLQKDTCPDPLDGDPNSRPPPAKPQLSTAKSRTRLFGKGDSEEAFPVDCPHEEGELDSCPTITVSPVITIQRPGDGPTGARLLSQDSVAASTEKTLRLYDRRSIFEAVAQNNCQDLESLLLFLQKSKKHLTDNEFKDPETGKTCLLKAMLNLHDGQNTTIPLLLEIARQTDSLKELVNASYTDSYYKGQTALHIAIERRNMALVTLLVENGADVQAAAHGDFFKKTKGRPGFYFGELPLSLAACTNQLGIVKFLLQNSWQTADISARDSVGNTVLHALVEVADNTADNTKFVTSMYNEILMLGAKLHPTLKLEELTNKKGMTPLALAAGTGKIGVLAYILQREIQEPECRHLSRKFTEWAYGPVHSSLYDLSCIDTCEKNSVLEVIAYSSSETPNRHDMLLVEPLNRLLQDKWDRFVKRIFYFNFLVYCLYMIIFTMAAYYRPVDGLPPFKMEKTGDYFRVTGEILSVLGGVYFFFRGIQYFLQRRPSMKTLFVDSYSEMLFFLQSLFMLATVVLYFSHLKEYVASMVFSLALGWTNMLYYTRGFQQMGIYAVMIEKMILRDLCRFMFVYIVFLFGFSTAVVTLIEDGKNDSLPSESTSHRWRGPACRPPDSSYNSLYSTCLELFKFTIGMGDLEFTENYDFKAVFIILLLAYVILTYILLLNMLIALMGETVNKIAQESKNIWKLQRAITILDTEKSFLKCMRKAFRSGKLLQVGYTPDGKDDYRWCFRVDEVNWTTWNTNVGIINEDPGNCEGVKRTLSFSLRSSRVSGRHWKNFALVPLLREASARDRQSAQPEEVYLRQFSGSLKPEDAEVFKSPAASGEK
Experimental: Chinese Hamster Ovary (CHO) cells transfected to express human TrpV1 receptor (which are herein referred to as CHO-huTrpV1 cells), were grown in F-12 Ham's Nutrient Mixture media (HyClone SH30026.01) supplemented with 10% Fetal Bovine Serum (Invitrogen #26140-079), 1% Antibiotic/antimycotic (Invitrogen #15240-062) and 500 μg/mL geneticin (ThermoFisher scientific #1031035). Cells were grown in T-75 flasks at 37° C. incubater with 5% CO2. The cells were passaged twice a week at a ratio of 1:10 to 1:20 to maintain steady growth. For experimentation, cells were harvarsted at approximately 80% confluency and plated onto 384 well black cell culture plates (cat #781091, Greinier Bio-One Inc.) at 15,000 cells per well in 20 μl media and grown overnight.
The loading dye was prepared following instruction of Calcium 6 assay kit ([…], #R8190): 10 ml buffer from bottle B was added to 1 vial of bottle A (adapted to room temperature from −20° C.) and mixed well, then 2.5 mM of fresh prepared probenecid was added and mixed well. 20 μl/well of loading dye was added on top of the cells, and incubated at 37° C. for 1 hour 30 min.
Assay buffer preparation: 1×HBSS, 2 mM HEPES, 0.1% BSA plus 2.5 mM freshly prepared probenecid (Invitrogen, #P36400). 25 μl/well assay buffer in 384 well clear plate (cat #782281, Greiner Bio-one) was dispensed with buffer distributor (Multidrop ComB1 from Thermo Scientific). The compounds were in 384 Echo plate (cat #LPL0200, Labcyte) and the starting concentration of compound was 10 mM, then 1 to 3 serial dilution in 100% DMSO, 8 ul/well). 125 nl compounds was transferred to the 384 well plate containing 25 μl/well buffer with Echo® 555 Liquid Handler (Labcyte), such that the compound concentration was 5 fold of final concentration. The plate was shook slowly at 40 rpm/min for 10 min to mix. […]
After compounds were added to the cell plate with loading dye, within 10-15 minutes, cell plate and plate containing NADA was placed into the FLIPR (Fluorescent Imaging Plate Reader) instrument (Tetra System, Molecular device). […]

Solubility in solvents = assay type: physicochemical; conditions: organic solvent or mixture
Experimental: Compound I is poorly soluble (between 1 and 25 mg/ml) in acetonitrile, dicholormethane, methyl-tert-butyl ether, nitromethane. In toluene and heptane, compound I is sparingly soluble (<1 mg/ml).

[1] = Hydrate formation on equilibration in aqueous fluid; assay type: physicochemical; conditions: equilibrated at 4° C. in water, methanol/water (33:67, 42:58), after 2 weeks and 4 weeks
[2] = Solid form stability (humidity exposure, compression, grinding, granulation); assay type: physicochemical
Hygroscopicity by DVS = assay type: physicochemical

IC50 (human TRPV1): 10.4 nM
SMILES: OCC(O)c1cc(F)c(CN[C@H]2C[C@H](Oc3ccc(F)c(C(F)(F)F)c3)C2)c2ccncc12 (mixture of isomers) [Example 1 (mixture of isomers), 1-(6-fluoro-5-((((1r,3r)-3-(4-fluoro-3-(trifluoromethyl)phenoxy)cyclobutyl)amino)methyl)isoquinolin-8-yl)ethane-1,2-diol]

solubility (Solubility in solvents; organic solvents and alcohol/water mixtures, acetone, 1,4-dioxane, ethanol, ethyl acetate, isopropyl acetate, methanol, 2-methyl-2-butanol, tetrahydrofuran, 1-propanol/water (98.5:1.5), 2-propanol/water (96:4), methanol/water (78:22)): > 25 mg/mL
solubility (Solubility in solvents; organic solvents, acetonitrile, dicholormethane, methyl-tert-butyl ether, nitromethane): 1 to 25 mg/mL (≈ 2.13 to 53.4 mM)
solubility (Solubility in solvents; organic solvents, toluene and heptane): < 1 mg/mL
IC50 (human TRPV1): 0.62 nM
Hydrate formation [1]: not observed to form a hydrate
SMILES: OC[C@@H](O)c1cc(F)c(CN[C@H]2C[C@H](Oc3ccc(F)c(C(F)(F)F)c3)C2)c2ccncc12 (single isomer, unassigned)

IC50 (human TRPV1): 6.3 nM
SMILES: OC[C@H](O)c1cc(F)c(CN[C@H]2C[C@H](Oc3ccc(F)c(C(F)(F)F)c3)C2)c2ccncc12 [(R)-1-(6-fluoro-5-((((1r,3R)-3-(4-fluoro-3-(trifluoromethyl)phenoxy)cyclobutyl)amino)methyl)isoquinolin-8-yl)ethane-1,2-diol]

Change after humidity exposure ([2]; 92% RH for 24 h): did not result in change
Form change after compression ([2]; compression, only minor peak broadening): no form change
Form change under grinding and granulation ([2]; dry grinding and wet granulation with water and ethanol (XRPD, FIG. 4)): did not show form change
Hygroscopicity by DVS (Hygroscopicity by DVS; DVS): slightly hygroscopic
Solid state change after DVS (Hygroscopicity by DVS; DVS up to 95% RH): no change in solid state
Water vapor absorbed (Hygroscopicity by DVS; DVS, at 95% RH): approximately 0.4%
SMILES: OC[C@@H](O)c1cc(F)c(CN[C@H]2C[C@H](Oc3ccc(F)c(C(F)(F)F)c3)C2)c2ccncc12 [Compound I Form A, (S)-1-(6-fluoro-5-((((1r,3S)-3-(4-fluoro-3-(trifluoromethyl)phenoxy)cyclobutyl)amino)methyl)isoquinolin-8-yl)ethane-1,2-diol]
